Results as given in patent US20090311344A1, “Dosing Regimen” (priority 2008, published 2009).
“Also recorded” adds a separate entry of the source.

Key:
[1] = test system: HT-29 human colon carcinoma xenografts; experiment: HT-29 human colon carcinoma xenografts in athymic nude mice: tumor growth delay; assay type: in vivo
From the text: Administration of the TPO Mimetic Peptide Compound One Hour After Administration of Carboplatin. Effect on activity and toxicity of carboplatin against HT-29 human colon carcinoma xenografts established in athymic nude mice.
Five groups (n=10) of female athymic nude mice (Harlan) bearing established (˜100 mm^3) HT-29 human colon carcinomas on Day 1. Groups 6-9 (n=20) were included for blood sampling and received the same treatment as Groups 1-4, respectively. Treatment effects on the growth of tumors were evaluated by tumor growth delay (TGD), which is the difference between median time to endpoint (TTE) tumor size in a treatment group compared to a control group. The effect of these treatments on platelet and erythrocyte precursors was determined from CBC analysis and reticulocyte counts of blood samples taken on Days 10, 13, 21 and 24.
Xenografts were initiated from HT-29 human colon carcinoma xenografts maintained in athymic nude mice. HT-29 tumor fragments (1 mm^3) were implanted subcutaneously into the right flank of each test mouse, and tumor growth was monitored. On Day 1 of the study, the animals were pair-matched into five groups (Groups 1-5) for evaluation of efficacy and four groups for sampling (Groups 6-9). Groups 1-5 each consisted of ten animals with tumor sizes ranging from 75-126 mm^3 and group mean tumor sizes of 99 mm^3. Groups 6-9 each consisted of twenty animals with tumor sizes ranging from 40-221 mm^3 and group mean tumor sizes of 84 mm^3. Tumor weight was estimated with the assumption that 1 mg is equivalent to 1 mm^3 of tumor volume. Volume was calculated using the formula:
Group 1 mice (n=10) were untreated tumor growth controls. Group 2 mice (n=10) received 60 mg/kg carboplatin administered intraperitoneally (i.p.) on Days 1, 2, 12, and 13. Group 3 mice (n=10) received 0.2 mg/kg of the TPO mimetic peptide compound administered intravenously (i.v.) via tail vein on Days 2 and 13. Groups 4 and 5 received the combination of carboplatin (60 mg/kg i.p. on Days 1, 2, 12, and 13) and 0.2 mg/kg of the TPO mimetic peptide compound on Days 2, 13 and Days 2, 13, 23, respectively, administered intravenously (i.v.) one hour after carboplatin dosing. Groups 6-9 (n=20 each) were included for blood sampling and received the same treatments as Groups 1-4, respectively. For all groups, each dose of drug was given in a volume of 0.2 mL per 20 g of body weight (10 mL/kg), and was scaled to the body weight of each animal.
Tumors were measured twice each week using calipers. Each animal was euthanized when its tumor reached the predetermined endpoint size of 1000 mm^3, or on the final day of the study (Day 62), whichever came first. The time to endpoint (TTE) for each mouse was calculated from the following equation: […]
where b is the intercept and m is the slope of the line obtained by linear regression of a log-transformed tumor growth data set. The data set was comprised of the first observation that exceeded the study endpoint volume and the three consecutive observations that immediately preceded the attainment of the endpoint volume.
Treatment outcome was determined from tumor growth delay (TGD), which is defined as the increase in the median time to endpoint (TTE) in a treatment group compared to the control group:
where: • T=median TTE for a treatment group, • C=median TTE for the control group (Group 1)
Treatment may cause partial regression (PR) or complete regression (CR) of the tumor in an animal. In a PR response, the tumor volume is 50% or less of its Day 1 volume for three consecutive measurements during the course of the study, and equal to or greater than 13.5 mm^3 for one or more of these three measurements. In a CR response, the tumor volume is less than 13.5 mm^3 for three consecutive measurements during the course of the study. An animal with a CR response at the termination of a study is additionally classified as a long-term tumor-free survivor (LTTFS). […]

[2] = Single dose study in healthy subjects: pharmacokinetics; assay type: in vivo, human
Protocol: The median tmax of the TPO mimetic peptide compound ranged between 0.09 to 2 hours following single i.v. administration. […] However, the elimination phase appeared consistent across the dose range.

platelet count = experiment: Multiple dose study in cancer subjects receiving platinum-based chemotherapy: platelet counts; assay type: in vivo, human; conditions: for Maximum Platelet Counts, Geometric Mean: in 10^9/L (unit assumed)
From the text: (§1) A total of 7 subjects were excluded from the preliminary statistical analysis of Day 42 platelet count data and 9 subjects were excluded from the preliminary statistical analysis of Day 42 hemoglobin data due to either incorrect randomization, platelet transfusion, not administered the 2nd dose of study medication, or lost to follow-up.

hemoglobin = experiment: Multiple dose study in cancer subjects receiving platinum-based chemotherapy: hemoglobin; assay type: in vivo, human; conditions: Day 42
From the text: as §1

[3] = mouse, in vivo
From the text: Animals were weighed daily for the first five days of the study and then twice weekly.
Animals were monitored for adverse treatment-related effects by frequent observation and body-weight (BW) measurements (data not shown).

[4] = addition of up to 3 cycles to carboplatin therapy

Methoxypolyethyleneglycol20000-propionyl-L-Isoleucyl-L-Glutamyl-Glycyl-L-Prolyl-L-Threonyl-L-Leucyl-L-Arginyl-L-Glutaminyl-L-2-Naphthylalanyl-L-Leucyl-L-Alanyl-L-Alanyl-L-Arginyl-Sarcosyl-Ne-(methoxypolyethyleneglycol20000-propionyl-L-Isoleucyl-L-Glutamyl-Glycyl-L-Prolyl-L-Threonyl-L-Leucyl-L-Arginyl-L-Glutaminyl-L-2-Naphthylalanyl-L-Leucyl-L-Alanyl-L-Alanyl-L-Arginyl-Sarcosyl-)-Lysinamide [TPO mimetic peptide compound]
TGD (tumor growth delay) ([1]; Groups 2-4, relative to untreated Group 1, carboplatin 60 mg/kg i.p. Days 1, 2, 12, 13, TPO mimetic peptide compound 0.2 mg/kg i.v. Days 2, 13): 8.1 days
% Tumor Growth Delay ([1]; HT-29 xenografts, athymic nude mice, n=10, carboplatin 60 mg/kg i.p. Days 1, 2, 12, 13, TPO mimetic peptide compound 0.2 mg/kg i.v. Days 2, 13, Groups 2-4, vs untreated Group 1): 33%
Median TTE ([1]; HT-29 xenografts, athymic nude mice, n=10, carboplatin 60 mg/kg i.p. Days 1, 2, 12, 13, TPO mimetic peptide compound 0.2 mg/kg i.v. Days 2, 13, Groups 2-4, endpoint 1000 mm^3): 32.9 days
effect on tumor growth ([1]; TPO mimetic peptide compound administration alone): did not enhance tumor growth
impact on tumor growth delay [1, 4]: no negative impact on tumor growth delay
survival compared with carboplatin treatment alone [1, 4]: small increase in survival; also recorded: small advantage in survival
Cmax dose proportionality [2]: increased approximately dose proportionally
mean terminal half-life ([2]; 3 μg/kg, not well defined): approximately 36 hours
AUC dose proportionality ([2]; 1.5- to 3-μg/kg dose range): no apparent dose proportionality
course of platelets (platelet count; 1.5 μg/kg dose): continued to decline up to Day 15
platelets as compared to the placebo subjects (platelet count; 1.5 μg/kg dose): no apparent difference
day of mean peak platelets (platelet count; 3.0 μg/kg dose): 15 days
subjects with platelet increase of more than 3 times the baseline (≧3-fold) (platelet count; 1.5 and 2.25 μg/kg dose): no subjects; also recorded: none of the subjects
day of peak platelets (platelet count; 2.25 and 1.5 μg/kg doses): 21 days
platelet nadir and peak platelet counts relative to placebo (platelet count; 2.25 and 3 μg/kg dose): approximately 2 fold
day of mean platelet nadir (platelet count; 2.25 and 3 μg/kg dose groups): 10 days
platelet count as compared with placebo (platelet count; 2.25 and 3 μg/kg doses): reduction in chemotherapy-induced decline in platelets and faster recovery relative to placebo; also recorded: increased platelet count
Maximum Platelet Counts, GMR (Active/Placebo) (platelet count; Across, 1.5 μg/kg): 1.0
Minimum Platelet Counts, GMR (Active/Placebo) (platelet count; Across, 1.5 μg/kg): 0.6
Minimum Platelet Counts, Geometric Mean (platelet count; Across, 1.5 μg/kg): 33.99
Maximum Platelet Counts, Geometric Mean (platelet count; Across, 1.5 μg/kg): 371.53
Maximum Platelet Counts, GMR (Active/Placebo) (platelet count; Across, 2.25 μg/kg): 1.6
Minimum Platelet Counts, GMR (Active/Placebo) (platelet count; Across, 2.25 μg/kg): 2.7
Minimum Platelet Counts, Geometric Mean (platelet count; Across, 2.25 μg/kg): 163.71
Maximum Platelet Counts, Geometric Mean (platelet count; Across, 2.25 μg/kg): 570.39
Maximum Platelet Counts, GMR (Active/Placebo) (platelet count; Across, 3.0 μg/kg): 1.8
Minimum Platelet Counts, GMR (Active/Placebo) (platelet count; Across, 3.0 μg/kg): 2.0
Minimum Platelet Counts, Geometric Mean (platelet count; Across, 3.0 μg/kg): 121.61
Maximum Platelet Counts, Geometric Mean (platelet count; Across, 3.0 μg/kg): 633.09
Maximum Platelet Counts, GMR (Active/Placebo) (platelet count; Cycle 1, 1.5 μg/kg): 1.1
Minimum Platelet Counts, GMR (Active/Placebo) (platelet count; Cycle 1, 1.5 μg/kg): 0.5
Minimum Platelet Counts, Geometric Mean (platelet count; Cycle 1, 1.5 μg/kg): 47.01
Maximum Platelet Counts, Geometric Mean (platelet count; Cycle 1, 1.5 μg/kg): 331.25
Maximum Platelet Counts, GMR (Active/Placebo) (platelet count; Cycle 1, 2.25 μg/kg): 1.8
Minimum Platelet Counts, GMR (Active/Placebo) (platelet count; Cycle 1, 2.25 μg/kg): 2.3
Minimum Platelet Counts, Geometric Mean (platelet count; Cycle 1, 2.25 μg/kg): 213.46
Maximum Platelet Counts, Geometric Mean (platelet count; Cycle 1, 2.25 μg/kg): 557.78
Maximum Platelet Counts, GMR (Active/Placebo) (platelet count; Cycle 1, 3.0 μg/kg): 2.1
Minimum Platelet Counts, GMR (Active/Placebo) (platelet count; Cycle 1, 3.0 μg/kg): 2.0
Minimum Platelet Counts, Geometric Mean (platelet count; Cycle 1, 3.0 μg/kg): 191.17
Maximum Platelet Counts, Geometric Mean (platelet count; Cycle 1, 3.0 μg/kg): 641.56
Maximum Platelet Counts, GMR (Active/Placebo) (platelet count; Cycle 2, 1.5 μg/kg): 1.0
Minimum Platelet Counts, GMR (Active/Placebo) (platelet count; Cycle 2, 1.5 μg/kg): 1.0
Minimum Platelet Counts, Geometric Mean (platelet count; Cycle 2, 1.5 μg/kg): 75.10
Maximum Platelet Counts, Geometric Mean (platelet count; Cycle 2, 1.5 μg/kg): 290.55
Maximum Platelet Counts, GMR (Active/Placebo) (platelet count; Cycle 2, 2.25 μg/kg): 1.4
Minimum Platelet Counts, GMR (Active/Placebo) (platelet count; Cycle 2, 2.25 μg/kg): 2.2
Minimum Platelet Counts, Geometric Mean (platelet count; Cycle 2, 2.25 μg/kg): 175.08
Maximum Platelet Counts, Geometric Mean (platelet count; Cycle 2, 2.25 μg/kg): 397.37
Maximum Platelet Counts, GMR (Active/Placebo) (platelet count; Cycle 2, 3.0 μg/kg): 1.4
Minimum Platelet Counts, GMR (Active/Placebo) (platelet count; Cycle 2, 3.0 μg/kg): 2.2
Minimum Platelet Counts, Geometric Mean (platelet count; Cycle 2, 3.0 μg/kg): 170.16
Maximum Platelet Counts, Geometric Mean (platelet count; Cycle 2, 3.0 μg/kg): 401.20
platelet elevations in the second cycle (platelet count; all subjects): below 3 times the baseline
day of maximum effect on platelet count after administration (platelet count; human, in vivo): 15 days
increase in platelet count relative to baseline (platelet count; second cycle, 3.0 μg/kg dose): approximately 2 fold
Change From Baseline in Hemoglobin, LS Mean (SE) (hemoglobin; 1.5 μg/kg): −1.63 (0.50)
Change From Baseline in Hemoglobin, Diff of LS Mean (SE) vs Placebo (hemoglobin; 2.25 μg/kg): 0.57 (0.57)
Change From Baseline in Hemoglobin, LS Mean (SE) (hemoglobin; 2.25 μg/kg): −1.60 (0.42)
treatment-related (TR) deaths [3]: no treatment-related (TR) deaths
